Test results taken from patent US9808528B2, “Protein-polymer-drug conjugates and methods of using same” (priority 2014, dated 2017).
pIC50: −log10 of the molar value. Where a SMILES comes first, the peptide text is derived from it. [ ]: non-standard residue; d: D form. The star is where a group is joined. Dolaproine = CO[C@@H]([C@@H]1CCCN1)[C@@H](C)C(=O)O; Dil = CC[C@H](C)[C@H](NC)[C@@H](CC(=O)O)OC; NMe2Val = CC(C)[C@@H](C(=O)*)N(C)C; NH(3-hydroxypropyl) = OCCCN*

Legend:
MCF7 = experiment: Cell viability assay (Cell Titer-Glo); type: cell-based; settings: 72 h incubation; HER2 low expressing cells; AF-HPA as toxin equivalents
Procedure: (§1) PBRM-polymer-drug conjugates were evaluated for their antiproliferation properties in tumor cell lines in vitro using Cell Titer-Glo (Promega Corp). Cells were plated in black walled 96-well plate and allowed to adhere overnight at 37° C. in a humidified atmosphere of 5% CO2. SKBR3, BT474, NCI-N87 cells (HER2 expressing cells), MCF7 cells (HER2 low expressing levels cells) and JIMT1 cells (HER2 medium expression level cells) were plated at a density of 5,000 cells per well. The next day the medium was replaced with 50 μL fresh medium and 50 μL of 2× stocks of PBRM-polymer-drug conjugate, drug polymer conjugate or drug were added to appropriate wells, mixed and incubated for 72 h. Cell Titer-Glo reagent was added to the wells at room temperature and the luminescent signal was measured after 10 min using a SpectraMax M5 plate reader (Molecular Devices). Dose response curves were generated using SoftMax Pro software. IC50 values were determined from four-parameter curve fitting.

BT474 = experiment: Cell viability assay (Cell Titer-Glo); type: cell-based, human; settings: 72 h incubation; AF-HPA as toxin equivalents
Procedure: as §1

HL-60 = experiment: Cell viability assay (Cell Titer-Glo); type: cell-based; settings: for pIC50: CD33 expressing cells, 72 h or 6 days incubation
Procedure: Dose response curves were generated using SoftMax Pro software. IC50 values were determined from four-parameter curve fitting.
CD33 expressing cells HL-60 were passed at a density of 5,000 cells per well and treated with PBRM-polymer-drug conjugate on the same day. After 72 h or 6 days incubation, the cells were analyzed using the same procedure described above.

JIMT1 = experiment: Cell viability assay (Cell Titer-Glo); type: cell-based; settings: 72 h incubation; HER2 medium expression level cells; AF-HPA as toxin equivalents
Procedure: as §1

N87 = experiment: Cell viability assay (Cell Titer-Glo); type: cell-based; settings: 72 h incubation; AF-HPA as toxin equivalents
Procedure: as §1

[1] = Mouse tissue distribution after administration of PBRM-polymer-drug conjugates
Procedure: To determine the concentration of the free drug in the sample, the acidified sample was treated with acetonitrile. The free drug was extracted from the supernatant and analyzed by LC-MS/MS.
At 48 hours post administration, the mice were sacrificed and the blood was collected by terminal cardiac.

SKBR3 = experiment: Cell viability assay (Cell Titer-Glo); type: cell-based; settings: 72 h incubation; AF-HPA as toxin equivalents
Procedure: as §1

hErbB2 = hErbB2 (Homo sapiens, UniProt P04626); experiment: Ligand binding studies by BIAcore surface plasmon resonance (SPR); settings: 25° C.; immobilized hErbB2; BioRad ProteOn XPR36
Procedure: The kinetic binding of the PBRM-polymer-drug conjugate to an immobilized receptor is determined by BIAcore SPR. The binding constants for the PBRM in the PBRM-polymer-drug conjugate and PBRM alone can be determined using standard BIAcore procedures.
The kinetic binding of the PBRM-polymer-drug conjugate to an immobilized receptor was determined by BIAcore SPR.

BT474 tumor fragments = experiment: Tumor growth response, BT474 xenograft; type: in vivo, mice
Procedure: (§2) Female CB-17 SCID mice were inoculated subcutaneously with BT474 tumor fragments (n=10 for each group) or JIMT-1 cells (n=10 for each group) or NCI-N87 cells (n=10 for each group). […] Test compounds or vehicle were dosed IV as a single dose on day 1. Tumor size was measured at the times indicated in FIGS. 1 to 6 using digital calipers. Tumor volume was calculated and was used to determine the delay in tumor growth. Mice were sacrificed when tumors reached a size of 800 to 1500 mm^3. Tumor volumes are reported as the mean±SEM (“standard error of mean”) for each group.

JIMT-1 = settings: read-out: IC50 JIMT-1; HER2 molecules per cell 80,000; Her2 expression 2+; 72 hours or 6 days
HL-60 cells = experiment: Tumor growth response, HL-60 xenograft; type: in vivo, mice
Procedure: Female NCr nu/nu mice were inoculated subcutaneously with HL-60 cells (n=10 for each group). Test compounds or vehicle were dosed IV as a single dose on day 1. Tumor size was measured at the times indicated in FIGS. 1 to 6 using digital calipers. Tumor volume was calculated and was used to determine the delay in tumor growth. Mice were sacrificed when tumors reached a size of 800 to 1500 mm^3. Tumor volumes are reported as the mean±SEM (“standard error of mean”) for each group.
Female NCr nu/nu mice were inoculated subcutaneously with HL-60 cells (n=10 for each group). Test compounds or vehicle were dosed IV as a single dose on day 1. Tumor size was measured at the times indicated in FIG. 3 using digital calipers. Tumor volume was calculated and was used to determine the delay in tumor growth. Mice were sacrificed when tumors reached a size of 2000 mm^3. Tumor volumes are reported as the mean±SEM for each group.

NCI-N87 cells = experiment: Tumor growth response, NCI-N87 xenograft; type: in vivo, mice; settings: single IV dose; Example 14 at […]; Example 16 at 3 mg/kg
Procedure: as §2

| Molecule | pIC50 (MCF7) | pIC50 (BT474) | pIC50 (JIMT1) | pIC50 (N87) | pIC50 (SKBR3) | ka (association or affinity rate constant) (hErbB2) | kd (dissociation rate constant) (hErbB2) | further results |
| --- | --- | --- | --- | --- | --- | --- | --- | --- |
| CC[C@H](C)[C@@H]([C@@H](CC(=O)N1CCC[C@H]1[C@H](OC)[C@@H](C)C(=O)N[C@@H](Cc1ccccc1)C(=O)NCCCO)OC)N(C)C(=O)[C@@H](NC(=O)[C@H](C(C)C)N(C)C)C(C)C [AF-HPA, Auristatin F-hydroxypropylamide] (NMe2Val-V[Dil][Dolaproine]F-{NH(3-hydroxypropyl)}) | 8.36 | 9.00 | 9.07 | 9.38 |  |  |  | pIC50 (HL-60): 8.32; metabolism of unconjugated AF-HPA in plasma (in words) ([1]; in plasma): not converted to AF; metabolism of released unconjugated AF-HPA in tissue (in words) ([1]; in tissue): further metabolized to AF |
| Trastuzumab-((EG2-MI (2%)-(10 kDa PHF-BA (28%)-(AF-HPA-Ala (9%) [Example 18B] | 7.48 | 10.30 | 9.92 | 10.40 | 11.00 | 3.05 ± 0.2 × 10^5 M^−1s^−1 | 2.46 ± 0.1 × 10^−5 s^−1 |  |
| Trastuzumab-((EG2-MI (1%))-(10 kDa PHF-GA (29%)-(AF-HPA-Ala (6%)) [Example 13] |  |  |  |  |  |  |  | regressions, FIG. 1 (BT474 tumor fragments; 5 mg/kg single IV dose): 100%; tumor free survival, FIG. 1 (BT474 tumor fragments; 5 mg/kg single IV dose): 80%; tumor volume response (in words), FIG. 1 (BT474 tumor fragments; single IV dose day 1, conjugates […] and 5 mg/kg, trastuzumab 10 mg/kg): reduction of tumor volume |
| Trastuzumab-((EG2-MI (2%)-(10 kDa PHF-BA (28%)-(AF-HPA-Ala (9%) [Example 18C] | 8.42 | 10.52 | 9.74 | 10.22 | 10.70 | 4.25 ± 0.5 × 10^5 M^−1s^−1 | 2.03 ± 0.1 × 10^−5 s^−1 |  |
| Trastuzumab-((EG2-MI (2%)-(10 kDa PHF-BA (28%)-(AF-HPA-Ala (9%) [Example 17] | 7.54 | 10.52 | 10.22 | 9.37 | 10.52 | 8.30 ± 0.2 × 10^5 M^−1s^−1 | 2.32 ± 0.2 × 10^−5 s^−1 | pIC50 (JIMT-1): 9.52 |
| Lintuzumab-((EG2-MI (2%)-(10 kDa PHF-BA (30%)-(AF-HPA-Ala (9%)) [Example 8] |  |  |  |  |  |  |  | antiproliferative activity compared to control conjugate (in words) (HL-60; CD33 expressing cell line HL-60): higher antiproliferative activity; pIC50 (HL-60): 9.11; regressions, FIG. 3 (HL-60 cells; 20 mg/kg single IV dose): 100%; tumor free survival on day 44, FIG. 3 (HL-60 cells; 20 mg/kg single IV dose, day 44): 70%; tumor volume response (in words), FIG. 3 (HL-60 cells; single IV dose day 1, 20 mg/kg): reduction of tumor volume |
| Rituximab-((EG2-MI (2%)-(10 kDa PHF-BA (28%)-(AF-HPA-Ala (9%)) [Example 16] | 7.55 | 8.52 | 8.73 | 8.28 |  |  |  | tumor growth response (in words), FIG. 6 (NCI-N87 cells): no effect on tumor growth |
